The text below walks through data of patent US10906946B2, “Thrombin inhibitors” (priority 2015, dated 2021).

Peptide text beside a SMILES is read from it. Where only a bound is given, the exact number is not on record here.

One assay addresses T1, human α-thrombin (Homo sapiens, UniProt P00734).
T1 construct: residues in the termini of the light chain; purchased Chemo-Sero-Therapeutic Research Institute (Kaketsuken, Japan), as a gift, not bought
The experiment in a line: Thrombin amidolytic activity assay with chromogenic substrate S2238. In kind it is biochemical. Put shortly:
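Run in 50 mM Tris pH 7.4, 100 mM NaCl, 1 mg/ml BSA; p-nitroaniline release from S2238 monitored at 405 nm for 10 min. IC50 and Hill coefficients from dose-response fits; inhibition constants from varied S2238 concentrations using Morrison tight-binding equation.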

Another assay deals with T2, thrombin (Homo sapiens, UniProt P00734).
T2 construct: residues in the termini of the light chain; and in the autolysis loop and C-terminus of the heavy chain; purchased Chemo-Sero-Therapeutic Research Institute (Kaketsuken, Japan), as a gift, not bought
In words: Cleavage of peptide by thrombin (RP-HPLC, ESI-MS). In kind it is biochemical. Here is the method:
A. Evaluation of avathrin cleavage by thrombin by HPLC chromatograms. Avathrin (150 μM) was incubated with thrombin (5 μM) for various times and the reaction mixtures were separated using RP-HPLC; the masses of the cleavage products were analyzed with ESI-MS. At 0 min (upper panel), a single peak corresponding to full length avathrin (mass 3139 Da) was identified. At 120 min (middle panel), two new peaks corresponding to N-terminal cleavage product (^1[…]^10 of SEQ ID NO: 1; mass 982 Da) and C-terminal cleavage product ([…] (SEQ ID NO: 4); mass 2176 Da) were identified in addition to avathrin peak. At 600 min (lower panel), two peaks corresponding to the N- and C-terminal cleaved products were observed while avathrin peak was not observed, indicating complete cleavage. B. Time-dependent cleavage of avathrin by thrombin. Relative percentages of avathrin, its N- and C-terminal cleavage products were quantified by calculating areas under the curve. Each data point is the mean±S.D. of at least three independent experiments. C. Effect of thrombin cleavage on inhibitory properties of avathrin. Avathrin was incubated with thrombin (0.81 nM) for up to 36 h, and assayed at different time points for its ability to inhibit thrombin amidolytic activity on the chromogenic substrate S2238. […]
Thrombin amidolytic activity assays for all peptides were performed in 96-wells microtiter plates in 50 mM Tris buffer (pH 7.4) containing 100 mM NaCl and 1 mg/ml bovine serum albumin. […] The rates of formation of p-nitroaniline were followed by measuring the absorbance at 405 nm for 10 min with a Tecan InfinitePro M200 microplate reader from Tecan (Männedorf, Switzerland). […] To measure the inhibitory constants, different concentrations of S2238 were used and the residual velocities were determined using the Morrison's tight binding equation. Inhibition of thrombin fibrinogenolytic activity of peptides were tested by measuring absorbance at 650 nm using a Sunrise microplate reader from Tecan (Männedorf, Switzerland) as described previously [Koh C Y, et al., J Biol Chem 282: 29101-13 (2007)]. […] Effects of avathrin on the amidolytic activities of these serine proteases were determined using respective chromogenic substrates. […] After different incubation times, reactions were quenched with 1% TFA (pH 1.8) and loaded onto a Jupiter Proteo column (4 μm, 90 Å, 100×1.0 mm) attached to a Dionex nano-HPLC system from Thermo Fisher Scientific (Waltham, Mass., USA) and eluted using an acetonitrile gradient with 0.05% TFA and 99.95% MilliQ water as eluent A and 0.05% TFA, 19.95% MilliQ water and 80% ACN as eluent B. Masses of all peaks were measured to identify cleavage products, which were subsequently quantified by integrating the peaks and calculating the area under the curves. […]

The test system of another assay is blood. In words: Anti-coagulation effect of peptides in blood tubes (visual clot formation). Also on record: species or system human (healthy volunteers). To be noted: room temperature. Here is the method:
Individual peptides are dissolved in phosphate buffered saline to prepare 10× peptide solutions (ie. concentrations of peptides are 10 times higher than the final concentrations at which they are to be tested). 0.3 ml of the 10× peptide solutions are placed in blood tubes without any additives. Blood was drawn from healthy volunteers using syringes and immediately transferred to a 50 ml conical centrifuge tube (Falcon tube) before pipetting 2.7 ml of the blood into blood tubes with peptide solutions. Final concentrations of peptides are as stated in Table 5 and 6.
Blood tubes with various peptides at different concentrations were left standing at room temperature until tested at designated times. At different time points, tubes were inverted several times and visually inspected for insoluble materials as indications of clot formation.

The mark [1] stands for this setting: inhibitory constant Ki for thrombin, thrombin 0.81 nM, various S2238 concentrations.
[2] abbreviates: final concentration 75 micromolar.
[3] abbreviates: final concentration 150 micromolar.
The mark [4] stands for this setting: final concentration 300 micromolar.

As for `CC[C@H](C)[C@H](NC(=O)[C@H](CCCCN)NC(=O)[C@@H]1CCCN1C(=O)[C@@H](NC(=O)[C@H](C)NC(=O)[C@@H](NC(=O)[C@H](CCC(N)=O)NC(=O)[C@H](Cc1c[nH]cn1)NC(=O)CNC(=O)CNC(=O)[C@@H](N)CO)[C@@H](C)O)C(C)C)C(=O)N[C@@H](CO)C(=O)N[C@@H](CCCCN)C(=O)N[C@@H](CCC(N)=O)C(=O)NCC(=O)N[C@@H](CC(C)C)C(=O)NCC(=O)NCC(=O)N[C@@H](CC(=O)O)C(=O)N[C@@H](Cc1ccccc1)C(=O)N[C@@H](CCC(=O)O)C(=O)N[C@@H](CCC(=O)O)C(=O)N[C@H](C(=O)N1CCC[C@H]1C(=O)N[C@@H](CO)C(=O)N[C@@H](CC(=O)O)C(=O)N[C@@H](CCC(=O)O)C(=O)N[C@H](C(=O)N[C@H](C(=O)N[C@@H](CCC(=O)O)C(=O)O)[C@@H](C)CC)[C@@H](C)CC)[C@@H](C)CC` [Avathrin] (H-SGGHQTAVPKISKQGLGGDFEEIPSDEIIE-OH; N-terminus and C-terminus assumed), the “times higher affinity for thrombin than Bivalirudin” value at human α-thrombin is “approximately 5 times”. The “Hill slope of thrombin amidolytic inhibition” value on human α-thrombin (0 min pre-incubation where stated) is given as 0.92±0.01. The “Hill slope of thrombin amidolytic inhibition, 10 min pre-incubation” value on human α-thrombin (10 min pre-incubation) was 0.94±0.02. Besides, at human α-thrombin (IC50(nM), Table 2), the IC50 (commonly the concentration at which inhibition is half-maximal) was found to be 6.95 ± 0.42 nM. In addition, on human α-thrombin (Table 2), the “Hill Slope” value stood at 0.92 ± 0.02. At human α-thrombin (at 24 h, same avathrin:thrombin ratio as cleavage experiments), the “thrombin amidolytic activity inhibited after prolonged incubation” value is recorded as greater than 45%. In addition, the Ki (in general, the equilibrium dissociation constant of an inhibitor or competing ligand from its target) at human α-thrombin (setting [1]) was 0.5453 ± 0.0031 nM. On human α-thrombin (read-out: inhibition of thrombin activity), the inhibition at 0.01 µM came out at 65%. Besides, the inhibition at 0.001 µM at human α-thrombin (read-out: inhibition of thrombin amidolytic activity at equimolar concentrations) is 14.3 ± 1.39%. The “time at which complete cleavage by thrombin was observed” value at thrombin (avathrin 150 μM, thrombin 5 μM) was determined as 600 min. Further, the “Time to observe clot formation” value in the assay on blood (setting [2]) lay within 42 to 52 h; with blood (setting [3]), 52 to 66 h; with blood (setting [4]), 52 to 66 h.
Regarding `CC[C@H](C)[C@H](NC(=O)[C@H](C)NC(=O)[C@H](CC(=O)O)NC(=O)[C@H](CC(=O)O)NC(=O)[C@@H]1CCCN1C(=O)[C@@H](NC(=O)[C@H](CCC(=O)O)NC(=O)[C@H](CCC(=O)O)NC(=O)[C@H](Cc1ccccc1)NC(=O)[C@H](CC(=O)O)NC(=O)CNC(=O)[C@@H]1CCCN1C(=O)[C@@H]1CCCN1C(=O)[C@H](C)NC(=O)[C@@H](NC(=O)[C@H](CO)NC(=O)[C@H](Cc1ccc(O)cc1)NC(=O)[C@H](CCSC)NC(=O)[C@H](CCCCN)NC(=O)[C@@H]1CCCN1C(=O)[C@@H](NC(=O)[C@H](C)NC(=O)[C@H](CCCNC(=N)N)NC(=O)[C@@H](NC(=O)[C@H](C)NC(=O)[C@H](CCC(=O)O)NC(=O)[C@H](CC(=O)O)NC(=O)[C@@H](N)CO)C(C)C)[C@@H](C)CC)[C@@H](C)O)[C@@H](C)CC)C(=O)N[C@@H](CCC(=O)O)C(=O)N[C@@H](CCC(=O)O)C(=O)O` [Ultravariegin] (H-SDEAVRAIPKMYSTAPPGDFEEIPDDAIEE-OH; N-terminus and C-terminus assumed), at human α-thrombin, the “fold more potent than variegin (Ki)” value is reported as “more than 70 fold”. For the same molecule, on human α-thrombin, the “fold stronger affinity compared to avathrin and variegin” value is given as greater than 200 fold. For the same molecule, the “times higher affinity for thrombin than Bivalirudin” value at human α-thrombin is roughly 650 times. Moreover, the inhibition constant Ki at human α-thrombin (Affinity (nM), Table 4, Ki values) stood at 0.001 nM; on human α-thrombin (Ki (pM), Table 5), 0.0044 ± 0.00035 nM; at human α-thrombin (setting [1]), 0.0015 nM. Besides, the IC50 turned out to be 0.4 ± 0.09 nM at human α-thrombin (IC50 (nM), Table 5) and 0.26 ± 0.008 nM at human α-thrombin (IC50 of inhibition of thrombin amidolytic activity, thrombin 0.81 nM, S2238 100 μM, without pre-incubation (0 min) where stated). For the same molecule, at thrombin (peptide incubated with thrombin (30:1)), the “time to complete cleavage by thrombin” value is on record as 18 h. For the same molecule, the “Time to observe clot formation” value was in the range of 91 to 101 h in the assay with blood (setting [2]), 101 to 139 h with blood (setting [3]) and 101 to 139 h in the assay with blood (setting [4]).
